Test systems include A549; CCRF-CEM; EKVX; HL-60; KM-20L2; M14; MDA-MB-231; MDA-N; MOLT-4; NCI-H23; OVCAR-5; SF-539; SK-MEL-2; SK-MEL-5; SNB-19; SNB-75; SR; SW-620; T47D; UACC-62.
Common to all, as to test: growth of human tumour cells (NCI), 48 h

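Growth conditions: 96-well plates. Treatment: test compound, 48 hours, 5 concentrations. Analysis: linear interpolation between bracketing concentrations; unreached endpoints set to highest concentration. GI50: concentration for 50% inhibition of growth.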 Active and inactive are the calls of the source. Rule as the data show it: active = GI50 up to about 1.1 µM and inactive = higher.

In the case of `C=C1CC2(OC1=O)c1ccccc1CCc1ccccc12`, the GI50 is 8.26 µM (inactive) with A549; 627 nM (active) in the assay on CCRF-CEM; 7.38 µM (inactive) in the assay with EKVX; 729 nM (active) in the assay with HL-60; 4.06 µM (inactive) in the assay with KM-20L2; 1.97 µM (inactive) with M14. The GI50 was 9.27 µM (inactive) in the assay on MDA-MB-231; 1.8 µM (inactive) with MDA-N; 2.43 µM (inactive) in the assay with MOLT-4; 9.95 µM (inactive) with NCI-H23; 14.5 µM (inactive) in the assay with OVCAR-5; 2.13 µM (inactive) with SF-539. The GI50 in the assay with SK-MEL-2 is 5.62 µM (inactive); in the assay with SK-MEL-5 it was 13.1 µM (inactive); in the assay on SNB-19, 7.62 µM (inactive); in the assay on SNB-75, 5.69 µM (inactive); in the assay with SR, 497 nM (active); in the assay on SW-620, 1.59 µM (inactive). Further, the figures for the GI50 in the assay on T47D and with UACC-62 were 2.07 µM (inactive) and 6.4 µM (inactive), respectively.

For `CCCCCCCC(CC(=O)NC(CO)C(=O)NC(CO)CC(C)C)OC(=O)CC(CCCCCCC)OC(=O)CC(CCCCCCC)OC1OC(C)C(O)C(OC2OC(C)C(O)C(O)C2O)C1O` (stereo not given), the GI50 with A549 was 15.8 µM (inactive); in the assay with CCRF-CEM, 3370 nM (inactive); in the assay with EKVX, 24.6 µM (inactive); in the assay with HL-60 it was 3260 nM (inactive); in the assay with KM-20L2, 15.7 µM (inactive); with M14 it was 5.05 µM (inactive). In addition, the GI50 in the assay on MDA-MB-231 is 13.2 µM (inactive); with MDA-N it was 6.92 µM (inactive); in the assay with MOLT-4, 3.06 µM (inactive); in the assay with NCI-H23, 14.3 µM (inactive); in the assay on OVCAR-5, 13.1 µM (inactive); in the assay on SF-539, 11.7 µM (inactive). The GI50 in the assay with SK-MEL-2 was 3.76 µM (inactive); with SK-MEL-5, 7.83 µM (inactive); with SNB-19, 12.2 µM (inactive); with SNB-75, 10.5 µM (inactive); in the assay with SR, 3050 nM (inactive); in the assay on SW-620 it was 15.7 µM (inactive). Moreover, the GI50 was 10.9 µM (inactive) in the assay on T47D and 14.1 µM (inactive) in the assay on UACC-62.

Values taken from ChEMBL document CHEMBL1201862, “PubChem BioAssay data set” (2004).
